Data on 1 compound can be found in patent US5498632A, “Esters of acyl carnitines with long-chain aliphatic alcohols and pharmaceutical compositions containing same having antibacterial activity” (Sigma-Tau Industrie Farmaceutiche Riunite S.p.A., priority 1992, dated 1996).

A word on the MIC: it is the lowest concentration that inhibits growth of the organism.

Read-outs that look alike come from different tables or passages of the source.

In series [1] the test system is H. pylori planktonic cells (NCTC 11637). Description: Bactericidal effect against H. pylori planktonic cells. Format: cell-based, Helicobacter pylori. From the text: (§1) The investigation aimed at evaluating the difference in susceptibility to ST 722 of planktonic and sessile Helicobacter cells, using in the latter case an "in vitro" experimental model, which closely resembled the clinical condition occurring "in vivo" in type-B gastritis. We used HEp-2 cells, an epithelial cell line which harbors the same membrane glycolipid receptors for H. pylori as those harbored by the mucous cells of the antral gastric mucosa (MEGRAUD, F., TRIMOULET, P., LAMOULIATTE, H. and BOYANOVA, L., 1991. Bacterial effect of Amoxicillin on "H. pylori" in an in vitro model using epithelial cells. Antimicrob. Agents Chemoter. 35 (5): 869-872 and LINGWOOD, C. A., LAW, H. and PELLIZANI, A., 1989. Gastric glycerolipid as a receptor for Campylobacter pylori. Lancet i: 238-241). Additionally, the viability of HEp-2 cells (either infected or not) was evaluated following "in vitro" ST 722 treatment. The degree of cytotoxicity was assessed by cytofiuorimetric analysis of Propidium Iodine-stained HEp-2 cells.
(§2) Helicobacter pylori NCTC 11637.
(§3) The antibacterial and cytotoxic activity of ST 722 against Helicobacter and HEp-2 cells, respectively, was evaluated by using 3 different ST 722 concentrations, namely 0.1, 1.56 (i.e. the MIC value vs. H. pylori NCTC 11637) and 4 mcg/ml.
(§4) After making geometric dilutions of the suspensions (0.1 ml of each dilution inoculated onto each plate in triplicate), the plates were incubated for 7 days in a microaerobic atmosphere, and the plates with 30 to 200 CFU were counted.
(§5) The ST 722 activity against Helicobacter planktonic cells was determined in the same experimental conditions in the absence of HEp-2 cells. Finally, the results are expressed as CFU per flask of each sample with respect to the relevant control (i.e. sessile or planktonic cultures).

The next series deals with HEp-2 cells. Put plainly: HEp-2 cell viability (Propidium Iodine cytofluorimetry). In kind it is cell-based, human. On the procedure:
The investigation aimed at evaluating the difference in susceptibility to ST 722 of planktonic and sessile Helicobacter cells, using in the latter case an "in vitro" experimental model, which closely resembled the clinical condition occurring "in vivo" in type-B gastritis. […] Additionally, the viability of HEp-2 cells (either infected or not) was evaluated following "in vitro" ST 722 treatment. The degree of cytotoxicity was assessed by cytofiuorimetric analysis of Propidium Iodine-stained HEp-2 cells. […]
The antibacterial and cytotoxic activity of ST 722 against Helicobacter and HEp-2 cells, respectively, was evaluated by using 3 different ST 722 concentrations, namely 0.1, 1.56 (i.e. the MIC value vs. H. pylori NCTC 11637) and 4 mcg/ml. […]
Three and twenty-four hours following ST 722 addition, the cells were trypsinized and harvested by centrifugation at 800 g, The cell pellets were then resuspended in 500 μl PBS and additioned with 6 μl of a 1 mcg/ml Propidium Iodine stock solution in PBS, The same procedure was followed for the control, i.e. HEp-2 cells not infected with H. pylori. The cell suspensions were finally analyzed by means of a FACScan cytofluorimeter.

The subject of series [2] is Helicobacter pylori NCTC 11637. Put plainly: MIC in agar (agar dilution). In kind it is cell-based. The note with it: for MIC: Helicobacter pylori, NCTC11637. Here is the method:
In this experiment the activity of ST 722 and ST 712 against Campylobacter and Helicobacter was investigated.
Campylobacter fetus ATCC 27374, Campylobacter coli LI 048, Campylobacter jejuni 84-ISS, and Helicobacter pylori NCTC 11637.
The culture medium was Columbia agar base supplemented with 7% (V/V) defribinated horse blood (DHB) for Campylobacter strains, and the same medium additioned with Vitox (Oxoid) for Helicobacter strain.
The Campylobacter and Helicobacter strains, preserved at -80° C. in DHB containing 10% (V/V) glycerol, were thawed and grown, in their respective culture medium, in culture flasks, which were incubated for 48 hours at 37° C. in a 10% CO2 atmosphere. After this first growth cycle, the bacteria were allowed to go through a second growth cycle in the same conditions as above.
The bacterial "patina" was then harvested by resuspension in 4-5 ml of Mueller-Hinton broth, the turbidity of which was then assessed according to Mc Farland's criteria (BRAY W. E., Clinical Laboratory Methods, 5th Ed. C. V. MOSBY, St. Louis, Mo. 1957). […]
With a Steers-type multipoint inoculator (STEERS E., FOLTZ E. L., GRAVES S., RIDEN J., 1959. Inocula-replicating apparatus for routine testing of antibacterial susceptibility to antibiotics. Antibiot. Chemoter. 9: 307-311) 1-μl volumes of the above standardized suspensions were spot-transferred into the wells of a 96-well microtiter plate, which had previously been filled with 0.2 ml/well of Mueller-Hinton agar 5% DHB, containing the test substances at different concentrations.
The plates was then incubated for 48/72 hours at 37° C. in a 10% CO2 atmosphere.
On the technique in general: In agar dilution the substance is mixed into plates at graded concentrations.

Series [3] concerns H. pylori sessile cells (NCTC 11637). Put plainly: Bactericidal effect against H. pylori sessile cells (attached to HEp-2). In kind it is cell-based, Helicobacter pylori.
Text: as §1
An HEp-2 epithelial cell line (a human larynx carcinoma) was used to permit the attachment of Helicobacter cells (sessile cells).
as §2, §3
A confluent HEp-2 cell culture is prepared, which is obtained after incubating the cell line in tissue culture flasks for 24 hours (37° C., 10% CO2, and ~96% humidity) in Columbia agar medium supplemented with Vitox and 7% defribinated horse serum. The bacteria are first harvested with DMEM medium 10% FCS, and then inoculated onto the HEp-2 cells to obtain a concentration of 5.0×10^6 CFU per flask (i.e. 2.0×10^5 CFU/cm^2).
Bacterial adhesion to the epitelial cells is favored by incubation for 2 hours at 37° C. and 5% CO2. After washing to remove the non attached bacteria. ST 722 is added (5 ml of 3 different concentrations) to the HEp-2 cell culture flasks.
Two additional flasks are added with 5 ml medium lacking ST 722, as Helicobacter growth controls.
At a predetermined time, the flasks were taken, the medium was discarded, and the cells were washed. The cells were harvested with a rubber policeman in 1 ml of phosphate-buffered saline and disrupted with an Ultraturax homogenizer.
as §4, §5

As to `CCCCCCCCCCCOC(=O)CC(C[N+](C)(C)C)OC(=O)CC(C)C` [ST 722, Isovaleryl-L-Carnitine Undecyl Ester Chloride], the “Planktonic cells (CFU per flask)” value in series [1] (3-h contact, 0.1 mcg/ml) is on record as 9.50 × 10^5 CFU per flask; in series [1] (3-h contact, 1.56 mcg/ml), 3.50 × 10^5 CFU per flask; in series [1] (3-h contact, 4.0 mcg/ml) it was 1.00 × 10^5 CFU per flask; in series [1] (24-h contact, 0.1 mcg/ml) it was 9.00 × 10^7 CFU per flask; in series [1] (24-h contact, 1.56 mcg/ml) it was 4.05 × 10^6 CFU per flask; in series [1] (24-h contact, 4.0 mcg/ml, control 5.35 × 10^8) it was 1.85×10^6 CFU per flask. For the same compound, in series [1] (planktonic cells), the complete medium sterilization result is “a complete medium sterilization was not attained”. For the same compound, the “cytotoxicity versus HEp-2 cells” value in the series on HEp-2 cells (4 mcg/ml (data not shown)) was “unable to induce detectable cytotoxicity”; in the series on HEp-2 cells (Propidium Iodine staining), “devoid of any cytotoxicity”. Also, the MIC in series [2] (I = inoculum of 1.0 × 10^5 cells/ml, read-out: MIC in agar) amounted to 1.56 µg/mL; in series [2] (agar medium, inoculum not given, read-out: MIC vs. H. pylori NCTC 11637), 1.56 µg/mL. The same compound displayed an MIC in agar in series [2] (II = inoculum of 1.0 × 10^6 cells/ml) of 1.56 µg/mL. Besides, the “antibacterial activity for Helicobacter and Campylobacter” value in series [2] (agar, Helicobacter and Campylobacter strains) is “possess an antibacterial activity”. Also, the “Sessile cells (CFU per flask)” value is reported as 9.50 × 10^2 CFU per flask in series [3] (3-h contact, 0.1 mcg/ml); 9.50 × 10^2 CFU per flask in series [3] (3-h contact, 1.56 mcg/ml); 4.50 × 10^2 CFU per flask in series [3] (3-h contact, 4.0 mcg/ml); 4.35 × 10^5 CFU per flask in series [3] (24-h contact, 0.1 mcg/ml); 1.80 × 10^5 CFU per flask in series [3] (24-h contact, 1.56 mcg/ml); 1.75 × 10^5 CFU per flask in series [3] (24-h contact, 4.0 mcg/ml). Further, in series [3] (Helicobacter pylori, NCTC11637, HEp-2, 3-h contact, 4 mcg/ml, read-out: reduction of number of sessile bacterial cells), the killing at 4 µg/mL was approximately 50%.
